Test results reported in patent publication EP2952497A1, “Method for neutralizing detrimental effects of thiolbearing compounds on metal catalysts” (Universität Basel, priority 2014, dated 2015).

Experiments:
[1] = screening of GSH neutralizing agents in GSH-spiked solutions before imine reduction; assay type: biochemical; conditions: for compatibility with the catalytic systems: solutions with or without Sav isoform, with or without 2.5 mmol/l GSH; for efficacy as GSH neutralizing agent: solutions spiked with 2.5 mmol/l GSH, incubated with agent before adding Ir-catalyst, reaction 2 days
Method: Michael acceptors and oxidizing agents known to react with GSH were selected to yield the corresponding thioether and disulfide, respectively. The following Michael acceptors were tested: maleinimide (Malln), 2-bromo-1-phenylethanone (BrPheOne), phenyl-vinylsulfone (PheViSul) and 3-Phenyl-2-propynenitrile (PhePropNit). The following oxidizing agents were selected: oxone (Ox), 1,4-benzoquinone (BQ), K3[Fe(CN)6] Fe^3+, and diamide (DiAm) (figure 2). For this purpose, solutions either with or without a Sav isoform were spiked with 2.5 mmol/l GSH and incubated overnight in presence of different concentrations of a particular GSH neutralizing agent before adding the Ir-catalyst. The reactions were initiated by addition of the imine substrate and run for 2 days (see Table 2).
An equimolar amount has no benefit on the reaction whereas four equivalents led to a decrease in conversion and enantioselectivity in the case of the S112K mutant. • 4) Despite the fact that H2O2 is commonly used to oxidize GSH, Ox was favoured for this purpose. […] Increasing the concentration of the GSH neutralizing agents leads to less consistent results. The outcome of the reaction depends on the Sav-mutant (if any) is used. […] A similar behaviour is observed with BrPheOne when no Sav or the S112K mutant was present.

[2] = test system: living cells, including E. coli; conditions: cited from earlier work
[3] = test system: [Cp*Ir(biot-p-L)Cl] c S112K Sav (streptavidin variant S112K, SEQ ID NO 2); conditions: 2.5 mM GSH; substrate 10 mM; purified Sav; RT, 48 h
Method: (§1) Initial experiments were performed using 50 µmol/l [Cp*Ir(biot-p-L)Cl], 100 µmol/l biotin binding sites (i.e. 25 µmol/l tetrameric Sav), 1 M HCO2Na in MOPS buffer ([…], pH 7) (see scheme 1). For comparison purposes, the imine reduction was performed with [Cp*Ir(biot-p-L)Cl]; [Cp*Ir(biot-p-L)Cl] c S112A Sav and [Cp*Ir(biot-p-L)Cl] c S112K Sav, cf. scheme 1.
(§2) Without wishing to be bound by theory, the inventors speculate that oxidizing GSH or derivatizing its thiol function could -at least partially- prevent inhibition of the hybrid catalysts.

[4] = test system: [Cp*Ir(biot-p-L)Cl] c S112A Sav (streptavidin variant S112A, SEQ ID NO 1); conditions: 2.5 mM GSH; substrate 10 mM; purified Sav; RT, 48 h
Method: as §1, §2

[5] = test system: [Cp*Ir(biot-p-L)Cl] c S112A Sav ATHase (streptavidin variant S112A, SEQ ID NO 1); conditions: substrate not given, taken as the imine (salsolidine precursor); cited from earlier work
[6] = test system: [Cp*Ir(biot-p-L)Cl] c S112K Sav ATHase (streptavidin variant S112K, SEQ ID NO 2); conditions: substrate not given, taken as the imine (salsolidine precursor); cited from earlier work

Molecule: O=C1C=CC(=O)C=C1 [BQ, 1,4-benzoquinone]
- compatibility with the catalytic systems [1]: not compatible with any of the three catalytic systems

Molecule: O=C(CBr)c1ccccc1 [BrPheOne, 2-bromo-1-phenylethanone]
- efficacy as GSH neutralizing agent [1]: most effective GSH neutralizing agents

Molecule: CN(C)C(=O)/N=N/C(=O)N(C)C [DiAm, diamide]
- compatibility with living cells [2]: causing neither lysis nor death
- efficacy as GSH neutralizing agent [1]: most effective GSH neutralizing agents
- compatibility with the catalytic systems [1]: fully compatible with the artificial metalloenzymes

Molecule: N[C@@H](CCC(=O)N[C@@H](CS)C(=O)NCC(=O)O)C(=O)O [GSH, glutathione]
- inhibition of reduction of the salsolidine precursor [3]: no activity
- inhibition of reduction of the salsolidine precursor [4]: no activity

Molecule: O=C1C=CC(=O)N1 [Malln, maleinimide]
- compatibility with the catalytic systems [1]: limited compatibility

Molecule: N#CC#Cc1ccccc1 [PhePropNit, 3-Phenyl-2-propynenitrile]
- efficacy as GSH neutralizing agent [1]: most effective when applied at a ratio PhePropNit/GSH 2:1

Molecule: C=CS(=O)(=O)c1ccccc1 [PheViSul, phenyl-vinylsulfone]
- efficacy as GSH neutralizing agent [1]: most effective GSH neutralizing agents
- compatibility with the catalytic systems [1]: does not affect the free Ir-complex

Molecule: COc1cc2c(cc1OC)C(C)=NCC2 [salsolidine precursor, 1-methyl-6,7-dimethoxy-3,4-dihydroisoquinoline]
- kcat [5]: 0.19 s⁻¹
- kcat [6]: 0.0433 s⁻¹

Molecule: oxone
- efficacy as GSH neutralizing agent [1]: efficacy is most pronounced with four equivalents vs. GSH
